Measurements from patent US20240376109A1, “PYRAZOLO[1,5-A]PYRIMIDINE COMPOUND FOR THE TREATMENT OF DERMAL DISORDERS” (OTSUKA PHARMACEUTICAL CO., LTD., priority 2021, published 2024).

Experiments:
PAR2 = target: T1, PAR2 (Homo sapiens, UniProt P55085); assay: Intracellular calcium concentration measurement (SLIGKV-NH2-induced calcium change, Fluo-8, FDSS/μCELL); type: cell-based; conditions: HEK293 cells; SLIGKV-NH2 10 μM-induced intracellular calcium change; read-out: IC50
T1 construct: HEK293 cell lines derived from human embryonic kidney cultured in a MEM culture medium; endogenous in cells; host or cells: HEK293
T1 sequence (P55085 26-397): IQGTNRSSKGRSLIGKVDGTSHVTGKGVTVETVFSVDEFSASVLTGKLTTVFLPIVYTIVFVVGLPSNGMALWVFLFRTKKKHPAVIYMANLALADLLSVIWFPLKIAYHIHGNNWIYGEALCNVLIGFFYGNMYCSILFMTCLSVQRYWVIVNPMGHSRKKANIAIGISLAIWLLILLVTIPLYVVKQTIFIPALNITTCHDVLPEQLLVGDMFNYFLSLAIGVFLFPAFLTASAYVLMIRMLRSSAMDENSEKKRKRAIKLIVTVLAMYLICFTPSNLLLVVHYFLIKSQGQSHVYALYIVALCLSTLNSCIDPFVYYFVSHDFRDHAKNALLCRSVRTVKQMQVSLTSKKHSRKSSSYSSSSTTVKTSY

ICR mice = assay: Scratching behavior test with PAR2 agonist peptide (SLIGRL-NH2) administration; type: in vivo, mouse; conditions: 40 μL of 6% test compound solution applied to back, SLIGRL-NH2 intradermal, scratching counted 10 to 40 minutes after
Protocol: Test Example 2: Scratching Behavior Test with PAR2 Agonist Peptide Administration
Magnets for measuring scratching behavior(Neuroscience, Inc.) were implanted in both legs of 6- to 7-week-old female ICR mice under 3.5% isoflurane inhalation anesthesia.
Under isoflurane inhalation anesthesia, the upper back was shaved about 2×3 cm with a shaver and 40 μL of a 6% of test compound solution was applied with a micropipette. The animals were then kept in a dedicated cage for 1 hour. […] Then, under isoflurane inhalation anesthesia, 10 μL of a 25 mg/mL solution of PAR2 agonist peptide (SLIGRL-NH2) in distilled water was administered intradermally by using a needle attached to a Hamilton syringe. The animals were returned to the cage and the scratching frequency was measured by the device for 30 minutes from 10 to 40 minutes after the administration.
The inhibitory effect of the test compounds on scratching behavior was calculated as a percentage of the number of scratches in the solvent-applied and PAR2 agonist peptide-treated group, and is shown in Table 4 as a percentage.

NC/Nga mice = assay: Scratching behavior test using atopic dermatitis model (SDS and mite antigen ointment sensitization); conditions: 60 μL applied, 7 hours after application
NZW rabbits = assay: Rabbit skin cumulative irritation test (erythema and edema scores, 7 days); type: in vivo; design: key: sum of erythema (5-point scale) + edema (5-point scale) scores; conditions: 50 μL of 3% solution in 70% ethanol daily for 7 days; for Irritant score Day 7: average total score of erythema and edema on Day 7; for Irritant score Maximum: maximum (total) score of erythema and edema during the test period
Protocol: Test Example 4: Rabbit Skin Cumulative Irritation Test
18-20 week-old female NZW rabbits shaved on the back with a shaver were fitted with a collar (Natsume Seisakusho Co., Ltd.). A 2.5 cm×2.5 cm frame was placed on the back of the rabbits, and 50 μL of a 3% solution of each compound in 70% ethanol was applied to the place in 2 or 3 rabbits. The next day (approximately 24 hours later), the compound applied on the previous day was wiped off with a cotton pad soaked in lukewarm water, and approximately 30 minutes later, erythema (5-point scale) and edema (5-point scale) were evaluated according to the score criteria shown below.
After the score evaluation, the compound was applied again. This process was conducted for 7 days, and irritancy was evaluated by the average of the total score of erythema and edema on the last day of evaluation (Day 7) and the maximum (total) scores during the test period.
The score evaluation criteria were as follows.

[1] = assessed concentration 1%, solvent 100% ethanol
[2] = assessed concentration 6%, solvent 100% ethanol

IC50 (PAR2) [nM]	Compound	scratching-behavior inhibition rate (ICR mice; solvent 100% ethanol) [%]	further results
141	O=C(c1cc2nc(C34CC5CC(CC(C5)C3)C4)cc(C(F)(F)F)n2n1)N1CCCCCC1 [Example 94]	–	scratching-behavior inhibition rate (ICR mice; solvent Acetone/methanol (1:1)): 44%
83	CC1(C)CCN(C(=O)c2cc3nc(CC4CCCC4)cc(C(F)(F)F)n3n2)C(C)(C)C1=O [Example 105]	27	–
228	CC1(C)CNCCCN1C(=O)c1cc2nc(C34CC5CC(CC(C5)C3)C4)cc(C(F)(F)F)n2n1 [Example 110]	–	scratching-behavior inhibition rate (ICR mice; solvent Acetone/methanol (1:1)): 25%
115	CC(C)c1cc(CC2CCCC2)nc2cc(C(=O)N3CCC(C)(C)C(=O)C3(C)C)nn12 [Example 71]	27	–
229	CC1CCCN(C(=O)c2cc3nc(CC4CCCC4)cc(C(C)C)n3n2)CC1 (stereo not shown) [Example 127]	–	–
245	CCc1cc(C2CCCCC2)nc2cc(C(=O)N3CCCCC3(C)C)nn12 [Example 121]	–	–
169	CC(C)c1cc(CC2CCCC2)nc2cc(C(=O)N3CCCC(O)C3(C)C)nn12 (stereo not shown) [Example 117]	34	–
319	CC(C)c1cc(C2CC3CCC2C3)nc2cc(C(=O)N3CCCCCC3)nn12 (stereo not shown) [Example 157]	–	–
225	CCCN(CC)c1cc(CC2CCCCC2)nc2cc(C(=O)N3CCCCCC3)nn12 [Example 131]	–	–
382	O=C(c1cc2nc(CC3CCCC3)cc(C3CCCCC3)n2n1)N1CCCCCC1 [Example 134]	–	–
163	CCc1cc(CC2CCCCCC2)nc2cc(C(=O)N3CCCCCCC3)nn12 [Example 147]	–	–
144	CCC(C)c1cc(CC2CCCCC2)nc2cc(C(=O)N3CCCCC3(C)C)nn12 (stereo not shown) [Example 124]	–	–
208	CCC(C)c1cc(CC2CCCCCC2)nc2cc(C(=O)N3CCCCCC3)nn12 (stereo not shown) [Example 149]	–	–
236	O=C(c1cc2nc(CC3CCCCC3)cc(C3CCCCCC3)n2n1)N1CCCCCC1 [Example 115]	–	–

The remaining lines, values behind:

Compound	IC50 (PAR2) [nM]	scratching-behavior inhibition rate (ICR mice; solvent 100% ethanol) [%]	further results
CCC(CC)c1cc(CC2CCCC2)nc2cc(C(=O)N3CCCCC3(C)C)nn12 [Example 13]	69	37	–
CC(C)c1cc(C23CC4CC(CC(C4)C2)C3)nc2cc(C(=O)N3CCNCC3(C)C)nn12 [Example 59]	357	–	scratching-behavior inhibition rate (ICR mice; solvent Acetone/methanol (1:1)): 28%
CCCc1cc(CC2CCCC2)nc2cc(C(=O)N3CCCCCC3)nn12 [Example 16]	259	47	–
CCCCc1cc(CC2CCCCC2)nc2cc(C(=O)N3CCCCCC3)nn12 [Example 10]	178	41	Scratching behavior inhibition rate (NC/Nga mice; [1]): 48%
CC1(C)CC(O)CCN1C(=O)c1cc2nc(CC3CCCCC3)cc(C(F)(F)F)n2n1 (stereo not shown) [Example 5]	130	36	–
CCc1cc(CC2CCCCC2)nc2cc(C(=O)N3CCCCCC3)nn12 [Example 19]	131	42	Scratching behavior inhibition rate (NC/Nga mice; [1]): 70%
CCC(CC)c1cc(CC2CCCC2)nc2cc(C(=O)N3CCC(C)(C)C(=O)C3(C)C)nn12 [Example 70]	51	33	–
CC(C)c1cc(CCC2CCCCC2)nc2cc(C(=O)N3CCCCCC3)nn12 [Example 17]	232	–	Irritant score Day 7 (NZW rabbits): 0.7; Irritant score Maximum (NZW rabbits): 1.3; Scratching behavior inhibition rate (NC/Nga mice; [2]): 60%
O=C(c1cc2nc(CC3CCCCC3)cc(C3CCCCC3)n2n1)N1CCCCCC1 [Example 8, azepan-1-yl(7-cyclohexyl-5-(cyclohexylmethyl)pyrazolo[1,5-a]pyrimidin-2-yl)methanone]	95	30	Scratching behavior inhibition rate (NC/Nga mice; [2]): 50%
CC(C)c1cc(C2CCCCC2)nc2cc(C(=O)N3CCCCC3(C)C)nn12 [Example 32]	118	41	–
CCCc1cc(C23CC4CC(CC(C4)C2)C3)nc2cc(C(=O)N3CCCCCC3)nn12 [Example 1]	173	35	Scratching behavior inhibition rate (NC/Nga mice; [2]): 76%
CCc1cc(CC2CCCC2)nc2cc(C(=O)N3CCCCC3(C)C)nn12 [Example 11]	252	–	Scratching behavior inhibition rate (NC/Nga mice; [2]): 80%
CC(C)c1cc(CC2CCCC2)nc2cc(C(=O)N3CCSCC3(C)C)nn12 [Example 18]	36	39	–
CC1(C)CCCCN1C(=O)c1cc2nc(C3CCCCC3)cc(C(F)(F)F)n2n1 [Example 65]	107	27	–
O=C(c1cc2nc(CCC3CCCC3)cc(C(F)(F)F)n2n1)N1CCCCCC1 [Example 6, azepan-1-yl(5-(2-cyclopentylethyl)-7-(trifluoromethyl)pyrazolo[1,5-a]pyrimidin-2-yl)methanone]	149	–	Scratching behavior inhibition rate (NC/Nga mice; [2]): 60%
CCC(CC)c1cc(CC2CCCCC2)nc2cc(C(=O)N3CCCCCC3)nn12 [Example 37]	88	30	–
O=C(c1cc2nc(C3CCCC3)cc(C(F)(F)F)n2n1)N1CCCCCC1 [Example 55]	569	–	scratching-behavior inhibition rate (ICR mice; solvent Acetone/methanol (1:1)): 47%; Scratching behavior inhibition rate (NC/Nga mice; assessed concentration 6%, solvent Acetone/methanol (1:1)): 54%
O=C(c1cc2nc(CC3CCCC3)cc(C(F)(F)F)n2n1)N1CCCCCC1 [Example 4, azepan-1-yl(5-(cyclopentylmethyl)-7-(trifluoromethyl)pyrazolo[1,5-a]pyrimidin-2-yl)methanone]	109	–	Scratching behavior inhibition rate (NC/Nga mice; assessed concentration 6%, solvent 70% ethanol): 56%
O=C(c1cc2nc(C3CCCCC3)cc(C(F)(F)F)n2n1)N1CCCCCC1 [Example 54]	355	–	scratching-behavior inhibition rate (ICR mice; solvent Acetone/methanol (1:1)): 25%
CC1(C)CNCCN1C(=O)c1cc2nc(C34CC5CC(CC(C5)C3)C4)cc(C(F)(F)F)n2n1 [Example 53, [5-(1-adamantyl)-7-(trifluoromethyl)pyrazolo[1,5-a]pyrimidin-2-yl]-(2,2-dimethylpiperazin-1-yl)methanone]	404	–	scratching-behavior inhibition rate (ICR mice; solvent Acetone/methanol (1:1)): 44%
O=C(c1cc2nc(C3CCCCCC3)cc(C(F)(F)F)n2n1)N1CCCCCC1 [Example 60]	234	–	–
CC(C)c1cc(CCC2CCCC2)nc2cc(C(=O)N3CCCCCC3)nn12 [Example 14]	186	–	Irritant score Day 7 (NZW rabbits): 2.0; Irritant score Maximum (NZW rabbits): 2.0; Scratching behavior inhibition rate (NC/Nga mice; [2]): 95%
CCC(CC)c1cc(CC2CCCC2)nc2cc(C(=O)N3CCCC(=O)C3(C)C)nn12 [Example 68]	15	–	–
CC1(C)COCCN1C(=O)c1cc2nc(C34CC5CC(CC(C5)C3)C4)cc(C(F)(F)F)n2n1 [Example 62]	52	–	–
CC1(c2cc(C(F)(F)F)n3nc(C(=O)N4CCCCCC4)cc3n2)CCCCC1 [Example 57]	308	–	–
CC(C)c1cc(C23CC4CC(CC(C4)C2)C3)nc2cc(C(=O)N3CCCCC3(C)C)nn12 [Example 2]	31	46	–
CC(C)c1cc(CC2CCCCC2)nc2cc(C(=O)N3CCSCC3(C)C)nn12 [Example 50]	43	–	–
CCC(CC)c1cc(CC2CCCC2)nc2cc(C(=O)N3CCCCCC3)nn12 [Example 33]	51	–	–
CCCCCc1cc(CC2CCCCC2)nc2cc(C(=O)N3CCCCCC3)nn12 [Example 44]	208	–	–
